IC50 data for 20 molecules are collected here from patent publication US20160355475A1, “NOVEL INDOLE DERIVATIVE COMPOUND AND PHARMACEUTICAL COMPOSITION COMPRISING THE SAME” (CHONG KUN DANG PHARMACEUTICAL CORP., priority 2014, published 2016).

The target of test [1] is T1, HDAC6 human recombinant (Homo sapiens, UniProt Q9UBN7).
T1 construct: purchased Calbiochem 382180
T1 sequence (Q9UBN7 1-1215): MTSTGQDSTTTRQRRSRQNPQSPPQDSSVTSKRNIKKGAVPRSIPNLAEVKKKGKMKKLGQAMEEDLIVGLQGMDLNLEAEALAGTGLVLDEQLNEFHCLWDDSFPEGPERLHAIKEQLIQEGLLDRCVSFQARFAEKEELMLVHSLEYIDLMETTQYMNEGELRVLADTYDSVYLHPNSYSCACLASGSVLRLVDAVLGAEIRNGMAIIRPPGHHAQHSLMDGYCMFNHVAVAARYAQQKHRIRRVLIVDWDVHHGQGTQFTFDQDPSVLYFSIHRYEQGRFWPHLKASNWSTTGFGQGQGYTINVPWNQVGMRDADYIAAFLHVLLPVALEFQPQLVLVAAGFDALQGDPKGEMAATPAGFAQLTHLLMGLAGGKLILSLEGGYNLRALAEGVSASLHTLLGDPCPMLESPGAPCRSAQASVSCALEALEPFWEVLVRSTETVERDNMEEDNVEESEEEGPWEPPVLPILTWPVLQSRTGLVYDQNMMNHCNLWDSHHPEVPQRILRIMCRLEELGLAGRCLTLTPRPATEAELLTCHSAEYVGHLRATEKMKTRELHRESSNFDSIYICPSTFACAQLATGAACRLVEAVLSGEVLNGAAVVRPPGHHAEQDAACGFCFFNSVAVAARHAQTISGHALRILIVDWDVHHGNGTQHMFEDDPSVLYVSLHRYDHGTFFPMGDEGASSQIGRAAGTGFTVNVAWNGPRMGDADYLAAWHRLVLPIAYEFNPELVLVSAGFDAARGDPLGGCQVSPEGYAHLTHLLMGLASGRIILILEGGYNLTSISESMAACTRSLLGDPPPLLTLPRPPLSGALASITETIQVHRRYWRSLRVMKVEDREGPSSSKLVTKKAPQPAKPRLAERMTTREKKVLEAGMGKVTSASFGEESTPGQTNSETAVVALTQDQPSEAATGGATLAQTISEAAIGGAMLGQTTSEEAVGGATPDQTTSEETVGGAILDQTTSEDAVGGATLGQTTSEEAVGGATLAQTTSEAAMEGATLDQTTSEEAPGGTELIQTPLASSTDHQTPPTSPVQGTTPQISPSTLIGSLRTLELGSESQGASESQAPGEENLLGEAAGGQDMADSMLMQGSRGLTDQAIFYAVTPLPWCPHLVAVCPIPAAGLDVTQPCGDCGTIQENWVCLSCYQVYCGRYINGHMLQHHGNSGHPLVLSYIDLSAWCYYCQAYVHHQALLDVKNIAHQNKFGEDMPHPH
Briefly: HDAC6 enzyme activity inhibition (fluorimetric, in vitro). The note with it: 37° C., 60 minutes; tested at 0.1, 1, 10, 100 and 1000 nM. The test is classed as biochemical. As for the experimental part: (§1) 1. Experiment on Activities in HDAC Enzymes (HDAC1 and HDAC6)
(§2) Assays were performed using a HDAC1 fluorimetric drug discovery assay kit (Enzolifesciences: BML-AK511) and a HDAC6 human recombinant (Calbiochem: 382180). The assay mixture of the kit was treated with each of the compounds of the Examples at concentrations 100, 1000 and 10000 nM for HDAC1 assay and 0.1, 1, 10, 100 and 1000 nM for HDAC6 assay. The treated assay mixture was allowed to react at 37° C. for 60 minutes, and then was treated with a developer and allowed to stand at 37° C. for 30 minutes, followed by quantification of the fluorescence. In Table 17, lower HDAC6 values (μM) indicate higher HDAC6 inhibitory activities of the compounds. Also, because selective HDAC6 inhibitors should not inhibit HDAC1 (μM), higher HDAC1 values indicate higher HDAC6 selectivity of the compounds.

Test [2] has as its target T2, HDAC1 (Homo sapiens, UniProt Q13547).
T2 construct: purchased Enzolifesciences BML-AK511
Briefly: HDAC1 enzyme activity inhibition (HDAC1 fluorimetric drug discovery assay kit). The test is classed as biochemical. Particulars: 37° C., 60 minutes; tested at 100, 1000 and 10000 nM. Here is the method: as §1, §2

T2 sequence (Q13547 whole entry): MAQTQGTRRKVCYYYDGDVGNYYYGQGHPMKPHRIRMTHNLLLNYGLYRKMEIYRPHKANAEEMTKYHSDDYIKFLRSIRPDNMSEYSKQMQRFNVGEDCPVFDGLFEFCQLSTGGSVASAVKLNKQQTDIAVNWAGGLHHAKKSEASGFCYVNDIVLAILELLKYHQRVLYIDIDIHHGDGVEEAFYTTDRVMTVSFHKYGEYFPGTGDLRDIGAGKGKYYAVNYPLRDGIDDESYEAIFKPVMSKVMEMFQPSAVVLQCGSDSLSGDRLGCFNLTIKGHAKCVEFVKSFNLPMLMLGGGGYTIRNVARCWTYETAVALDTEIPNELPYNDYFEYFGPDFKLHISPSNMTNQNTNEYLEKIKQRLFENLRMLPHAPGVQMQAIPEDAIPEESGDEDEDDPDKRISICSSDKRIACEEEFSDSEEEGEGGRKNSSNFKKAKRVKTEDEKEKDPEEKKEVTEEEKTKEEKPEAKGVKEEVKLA

As a reminder, the IC50 is the point on the concentration scale where inhibition reaches its midpoint. Turning to `Cc1c(Cc2ccc(C(=O)NO)cc2)c2ccccc2n1CC1CCN(CC2(F)CCN(C(=O)OC(C)(C)C)CC2)CC1` [Compound 610, Tert-butyl 4-fluoro-4-((4-((3-(4-(hydroxycarbamoyl)benzyl)-2-methyl-1H-indol-1-yl)methyl)piperidin-1-yl)methyl)piperidine-1-carboxylate], the results for the IC50 in test [1] and in test [2] were 79 nM and greater than 10000 nM, respectively.
The corresponding values for `Cc1c(Cc2ccc(C(=O)NO)cc2)c2ccccc2n1CC1CCN(CC2(F)CCNCC2)CC1` [Compound 611, 4-((1-((1-((4-fluoropiperidin-4-yl)methyl)piperidin-4-yl)methyl)-2-methyl-1H-indol-3-yl)methyl)-N-hydroxybenzamide] are 24 nM and 2930 nM.
For `CC(=O)N1CCC(F)(CN2CCC(Cn3c(C)c(Cc4ccc(C(=O)NO)cc4)c4ccccc43)CC2)CC1` [Compound 612, 4-((1-((1-((1-acetyl-4-fluoropiperidin-4-yl)methyl)piperidin-4-yl)methyl)-2-methyl-1H-indol-3-yl)methyl)-N-hydroxybenzamide], in that order: 61 nM and 9100 nM.
For `Cc1c(Cc2ccc(C(=O)NO)cc2)c2ccccc2n1CC1CCN(CC2(F)CCN(CC(C)(C)O)CC2)CC1` [Compound 613, 4-((1-((1-((4-fluoro-1-(2-hydroxy-2-methylpropyl)piperidin-4-yl)methyl)piperidin-4-yl)methyl)-2-methyl-1H-indol-3-yl)methyl)-N-hydroxybenzamide], in that order: 69 nM and 6740 nM.
Take `Cc1c(Cc2ccc(C(=O)NO)cc2)c2ccccc2n1CC1CCN(CC2(F)CCN(CC(C)(C)F)CC2)CC1` [Compound 615, 4-((1-((1-((4-Fluoro-1-(2-fluoro-2-methylpropyl)piperidin-4-yl)methyl)piperidin-4-yl)methyl)-2-methyl-1H-indol-3-yl)methyl)-N-hydroxybenzamide]: the IC50 is 7 nM in test [1] and greater than 10000 nM in test [2].
For `Cc1c(Cc2ccc(C(=O)NO)cc2)c2ccccc2n1CC1CCN(Cc2cc(F)c(F)cc2F)CC1` [Compound 619, N-hydroxy-4-((2-methyl-1-((1-(2,4,5-trifluorobenzyl)piperidin-4-yl)methyl)-1H-indol-3-yl)methyl)benzamide], in that order: 770 nM and greater than 10000 nM.
The corresponding values for `Cc1c(Cc2ccc(C(=O)NO)cc2)c2ccccc2n1CC1CCN(Cc2ccccc2F)CC1` [Compound 620, 4-((1-((1-(2-Fluorobenzyl)piperidin-4-yl)methyl)-2-methyl-1H-indol-3-yl)methyl)-N-hydroxybenzamide] are 306 nM and greater than 10000 nM.
For `Cc1c(Cc2ccc(C(=O)NO)cc2)c2ccccc2n1CC1CCN(Cc2ccccn2)CC1` [Compound 623, N-hydroxy-4-((2-methyl-1-((1-(pyridin-2-ylmethyl)piperidin-4-yl)methyl)-1H-indol-3-yl)methyl)benzamide], in that order: 28 nM and 1480 nM.
For `CC(C)(F)CN1CCC(Cn2c(-c3ccncc3)c(Cc3ccc(C(=O)NO)cc3)c3ccccc32)CC1` [Compound 624, 4-((1-((1-(2-Fluoro-2-methylpropyl)piperidin-4-yl)methyl)-2-(pyridin-4-yl)-1H-indol-3-yl)methyl)-N-hydroxybenzamide], the half-maximal inhibitory concentration (IC50) in test [1] amounted to 107 nM; in test [2], 5010 nM.
Turning to `CC(C)(F)CN1CCC(Cn2c(-c3cncnc3)c(Cc3ccc(C(=O)NO)cc3)c3ccccc32)CC1` [Compound 625, 4-((1-((1-(2-Fluoro-2-methylpropyl)piperidin-4-yl)methyl)-2-(pyrimidin-5-yl)-1H-indol-3-yl)methyl)-N-hydroxybenzamide], the half-maximal inhibitory concentration (IC50) in test [1] was found to be 71 nM; in test [2], 5720 nM.
The corresponding values for `CC(C)(F)CN1CCC(Cn2c(-c3cc(F)cc(F)c3)c(Cc3ccc(C(=O)NO)cc3)c3ccccc32)CC1` [Compound 626, 4-((2-(3,5-Difluorophenyl)-1-((1-(2-fluoro-2-methylpropyl)piperidin-4-yl)methyl)-1H-indol-3-yl)methyl)-N-hydroxybenzamide] are 587 nM and greater than 10000 nM.
For `Cc1c(Cc2ccc(C(=O)NO)cc2)c2ccccc2n1CC1CCN(Cc2cccc(F)c2)CC1` [Compound 631, 4-((1-((1-(3-Fluorobenzyl)piperidin-4-yl)methyl)-2-methyl-1H-indol-3-yl)methyl)-N-hydroxybenzamide], in that order: 1360 nM and greater than 10000 nM.
`Cc1c(Cc2ccc(C(=O)NO)cc2)c2ccccc2n1CC1CCN(Cc2cccnc2)CC1` [Compound 632, N-hydroxy-4-((2-methyl-1-((1-(pyridin-3-ylmethyl)piperidin-4-yl)methyl)-1H-indol-3-yl)methyl)benzamide]: the IC50 in test [1] was 63 nM; in test [2], 1790 nM.
Regarding `Cc1c(Cc2ccc(C(=O)NO)cc2)c2ccccc2n1CCN1C[C@@H](C)N(CC(C)(C)F)[C@@H](C)C1` [Compound 633, 4-((1-(2-((3S,5R)-4-(2-fluoro-2-methylpropyl)-3,5-dimethylpiperazin-1-yl)ethyl)-2-methyl-1H-indol-3-yl)methyl)-N-hydroxybenzamide], the IC50 in test [1] was 75 nM; in test [2] it was 1760 nM.
Turning to `Cc1c(Cc2ccc(C(=O)NO)cc2)c2ccccc2n1CCCCN1CCN(CC(C)(C)F)CC1` [Compound 639, 4-((1-(4-(4-(2-Fluoro-2-methylpropyl)piperazin-1-yl)butyl)-2-methyl-1H-indol-3-yl)methyl)-N-hydroxybenzamide], the IC50 in test [1] was 76 nM; in test [2], 4980 nM.
Consider `Cc1c(Cc2ccc(C(=O)NO)cc2)c2ccccc2n1CCCN1CCN(CC(C)(C)F)CC1` [Compound 640, 4-((1-(3-(4-(2-Fluoro-2-methylpropyl)piperazin-1-yl)propyl)-2-methyl-1H-indol-3-yl)methyl)-N-hydroxybenzamide], for which the results for the IC50 in test [1] and in test [2] were 115 nM and 7600 nM, respectively.
For the molecule `Cc1c(Cc2ccc(C(=O)NO)cc2)c2ccccc2n1CC1CCN(CC2(C)COC2)CC1` [Compound 643, N-hydroxy-4-((2-methyl-1-((1-((3-methyloxetan-3-yl)methyl)piperidin-4-yl)methyl)-1H-indol-3-yl)methyl)benzamide], the values for the IC50 in test [1] and in test [2] were 28 nM and 4580 nM, respectively.
For `Cc1c(Cc2ccc(C(=O)NO)cc2)c2ccccc2n1CC1CCN(CC2(F)CCN(C)CC2)CC1` [Compound 679, 4-((1-((1-((4-Fluoro-1-methylpiperidin-4-yl)methyl)piperidin-4-yl)methyl)-2-methyl-1H-indol-3-yl)methyl)-N-hydroxybenzamide], in that order: 13 nM and 832 nM.
The corresponding values for `Cc1c(Cc2ccc(C(=O)NO)cc2)c2ccccc2n1CC1CCN(CC2(F)CCN(C(C)C)CC2)CC1` [Compound 681, 4-((1-((1-((4-Fluoro-1-isopropylpiperidin-4-yl)methyl)piperidin-4-yl)methyl)-2-methyl-1H-indol-3-yl)methyl)-N-hydroxybenzamide] are 37 nM and 802 nM.
The corresponding values for `Cc1c(Cc2ccc(C(=O)NO)cc2)c2ccccc2n1CC1CCN(CC2(F)CCN(S(C)(=O)=O)CC2)CC1` [Compound 696, 4-((1-((1-((4-Fluoro-1-(methylsulfonyl)piperidin-4-yl)methyl)piperidin-4-yl)methyl)-2-methyl-1H-indol-3-yl)methyl)-N-hydroxybenzamide] are 123 nM and greater than 10000 nM.
